Results as given in US11155668B2, “Contact-killing, QAC functionalized thermoplastic polyurethane for catheter applications” (THE UNIVERSITY OF AKRON, priority 2017, dated 2021).

How the values were obtained:
S. epidermidis = assay: Contact-killing assay (adapted from ISO 22196) on allyl-TPU blade-coated samples modified with Qx-SH; format: cell-based, Staphylococcus epidermidis (ATCC 12228); details: n = 2, negative control polypropylene 0.93 (±0.03) × 10^5
Method: (§1) To functionalize the allyl-TPU blade-coated samples with Qx-SH reagents, thiol-ene reactions were performed using the same procedure described for rhodamine-SH. Briefly, blade-coated films of allyl-TPU (250 μm thick, 2.0 cm diameter, ca. 110 mg, 20 μmol allyl) were submerged in 2 mL of an Ar purged (30 min) aqueous solution containing Qx-SH (10.0 mM) and LAP (5.0 mM), and allowed to pre-soak for 30 min under Ar. UV-treated samples were irradiated for 30 min (λ=365 nm, I=1.2 mW·cm^−2) while phys. ads. samples were kept in the absence of UV light for 30 min to control for any antimicrobial activity that is contributed by non-covalently attached QAC. Following treatment, the dye/photoinitiator solutions were drawn up and discarded, and the samples were rinsed with 5 mL of DI water (3×) then submerged in 5 mL of DI water. The samples were further rinsed with 10% EtOH (3×) and soaked in 10% EtOH for 15 min (3×), rinsing with 10% EtOH in between each soak.
(§2) For antimicrobial testing, blade-coated samples and catheter tubing of allyl-TPU were sterilized by EtO sterilization using an Anprolene benchtop sterilizer (Anderson Products, Inc., Haw River, N.C.) following the manufacturer's protocol to deliver approximately 0.5 cc·L^−1 of EtO gas over a 12 h sterilization cycle at 35% humidity and room temperature, followed by a 48 h purge under vacuum. The bacterial strains used in this study included Staphylococcus epidermidis (ATCC 12228), Staphylococcus aureus (25923), Escherichia coli (ATCC 25922), Pseudomonas aeruginosa (ATCC 27853), Enterococcus faecalis (ATCC 29212), and methicillin-resistant Staphylococcus aureus (MRSA) (ATCC BAA-41).
(§3) The contact-killing assay was performed on physically adsorbed (phys. ads.), and UV-treated blade-coated samples modified with a series of Qx-SH reagents using a method adapted from ISO 22196. See, International Organization for Standardization. Measurement of antibacterial activity on plastics and other non porous surfaces (ISO 22196:2011), the disclosure of which is incorporated herein by reference in its entirety. Briefly, the samples were inoculated with same day cultures of select bacteria (e.g. E. coli, S. epidermidis) in dilute nutrient media (0.2% tryptic soy broth (TSB) in 1× phosphate buffered saline (PBS)) at approximately 150 colony-forming units (CFU)·mm^−2. Generally, 35 uL of 8.5×10^5 CFU/mL cultures were dispersed across the surface of the sample using sterile polypropylene cover films (area=198 mm^2). Inoculated samples were incubated in a humidified room air incubator (36° C., ca. 80% rel. humidity) for 20 h. Following incubation, surviving cells were recovered from the samples using vigorous agitation (i.e. vortexing for 20 s in PBS). Surviving cells were enumerated via 10-fold series dilution and plating 100 μL onto tryptic soy agar (TSA), incubating overnight and then plate counting CFU. The mean CFU recovered per sample (CFU/sample) were calculated by accounting for dilutions. Internal controls samples of polypropylene and chlorhexidine treated with polypropylene were included in the assay.

E. faecalis = assay: as above; format: cell-based, Enterococcus faecalis (ATCC 29212); details: n = 1, negative control polypropylene 1.70 × 10^5
Method: as §1, §2, §3

CCCCCCCC[N+](C)(C)CCCCCCCCOC(=O)CCS.[Cl-] [Q8-SH]
Mean CFU/Sample Recovered, S.epidermidis (S. epidermidis; UV-treated samples): 0.00 ± 0.00 CFU/Sample | Mean CFU/Sample Recovered, S.epidermidis (S. epidermidis; phys. ads. samples): 0.00 ± 0.00 CFU/Sample | Mean CFU/Sample Recovered, E. faecalis (E. faecalis; UV-treated samples): 0.00 CFU/Sample | Mean CFU/Sample Recovered, E. faecalis (E. faecalis; phys. ads. samples): 0.00 CFU/Sample
